Reference: publication PMC2898634 (Chemical Communications (Cambridge, England), 2009)

Assays:
[1] = biological target: IP3R1 with R504 mutated to glutamine (Rattus norvegicus, UniProt P29994, R504Q); assay: Ca2+ release in cell line expressing only IP3R1 with R504 mutated to glutamine; format: cell-based
IP3R = details: cited from earlier work

Chain of IP3R1 with R504 mutated to glutamine (P29994 whole entry R504Q): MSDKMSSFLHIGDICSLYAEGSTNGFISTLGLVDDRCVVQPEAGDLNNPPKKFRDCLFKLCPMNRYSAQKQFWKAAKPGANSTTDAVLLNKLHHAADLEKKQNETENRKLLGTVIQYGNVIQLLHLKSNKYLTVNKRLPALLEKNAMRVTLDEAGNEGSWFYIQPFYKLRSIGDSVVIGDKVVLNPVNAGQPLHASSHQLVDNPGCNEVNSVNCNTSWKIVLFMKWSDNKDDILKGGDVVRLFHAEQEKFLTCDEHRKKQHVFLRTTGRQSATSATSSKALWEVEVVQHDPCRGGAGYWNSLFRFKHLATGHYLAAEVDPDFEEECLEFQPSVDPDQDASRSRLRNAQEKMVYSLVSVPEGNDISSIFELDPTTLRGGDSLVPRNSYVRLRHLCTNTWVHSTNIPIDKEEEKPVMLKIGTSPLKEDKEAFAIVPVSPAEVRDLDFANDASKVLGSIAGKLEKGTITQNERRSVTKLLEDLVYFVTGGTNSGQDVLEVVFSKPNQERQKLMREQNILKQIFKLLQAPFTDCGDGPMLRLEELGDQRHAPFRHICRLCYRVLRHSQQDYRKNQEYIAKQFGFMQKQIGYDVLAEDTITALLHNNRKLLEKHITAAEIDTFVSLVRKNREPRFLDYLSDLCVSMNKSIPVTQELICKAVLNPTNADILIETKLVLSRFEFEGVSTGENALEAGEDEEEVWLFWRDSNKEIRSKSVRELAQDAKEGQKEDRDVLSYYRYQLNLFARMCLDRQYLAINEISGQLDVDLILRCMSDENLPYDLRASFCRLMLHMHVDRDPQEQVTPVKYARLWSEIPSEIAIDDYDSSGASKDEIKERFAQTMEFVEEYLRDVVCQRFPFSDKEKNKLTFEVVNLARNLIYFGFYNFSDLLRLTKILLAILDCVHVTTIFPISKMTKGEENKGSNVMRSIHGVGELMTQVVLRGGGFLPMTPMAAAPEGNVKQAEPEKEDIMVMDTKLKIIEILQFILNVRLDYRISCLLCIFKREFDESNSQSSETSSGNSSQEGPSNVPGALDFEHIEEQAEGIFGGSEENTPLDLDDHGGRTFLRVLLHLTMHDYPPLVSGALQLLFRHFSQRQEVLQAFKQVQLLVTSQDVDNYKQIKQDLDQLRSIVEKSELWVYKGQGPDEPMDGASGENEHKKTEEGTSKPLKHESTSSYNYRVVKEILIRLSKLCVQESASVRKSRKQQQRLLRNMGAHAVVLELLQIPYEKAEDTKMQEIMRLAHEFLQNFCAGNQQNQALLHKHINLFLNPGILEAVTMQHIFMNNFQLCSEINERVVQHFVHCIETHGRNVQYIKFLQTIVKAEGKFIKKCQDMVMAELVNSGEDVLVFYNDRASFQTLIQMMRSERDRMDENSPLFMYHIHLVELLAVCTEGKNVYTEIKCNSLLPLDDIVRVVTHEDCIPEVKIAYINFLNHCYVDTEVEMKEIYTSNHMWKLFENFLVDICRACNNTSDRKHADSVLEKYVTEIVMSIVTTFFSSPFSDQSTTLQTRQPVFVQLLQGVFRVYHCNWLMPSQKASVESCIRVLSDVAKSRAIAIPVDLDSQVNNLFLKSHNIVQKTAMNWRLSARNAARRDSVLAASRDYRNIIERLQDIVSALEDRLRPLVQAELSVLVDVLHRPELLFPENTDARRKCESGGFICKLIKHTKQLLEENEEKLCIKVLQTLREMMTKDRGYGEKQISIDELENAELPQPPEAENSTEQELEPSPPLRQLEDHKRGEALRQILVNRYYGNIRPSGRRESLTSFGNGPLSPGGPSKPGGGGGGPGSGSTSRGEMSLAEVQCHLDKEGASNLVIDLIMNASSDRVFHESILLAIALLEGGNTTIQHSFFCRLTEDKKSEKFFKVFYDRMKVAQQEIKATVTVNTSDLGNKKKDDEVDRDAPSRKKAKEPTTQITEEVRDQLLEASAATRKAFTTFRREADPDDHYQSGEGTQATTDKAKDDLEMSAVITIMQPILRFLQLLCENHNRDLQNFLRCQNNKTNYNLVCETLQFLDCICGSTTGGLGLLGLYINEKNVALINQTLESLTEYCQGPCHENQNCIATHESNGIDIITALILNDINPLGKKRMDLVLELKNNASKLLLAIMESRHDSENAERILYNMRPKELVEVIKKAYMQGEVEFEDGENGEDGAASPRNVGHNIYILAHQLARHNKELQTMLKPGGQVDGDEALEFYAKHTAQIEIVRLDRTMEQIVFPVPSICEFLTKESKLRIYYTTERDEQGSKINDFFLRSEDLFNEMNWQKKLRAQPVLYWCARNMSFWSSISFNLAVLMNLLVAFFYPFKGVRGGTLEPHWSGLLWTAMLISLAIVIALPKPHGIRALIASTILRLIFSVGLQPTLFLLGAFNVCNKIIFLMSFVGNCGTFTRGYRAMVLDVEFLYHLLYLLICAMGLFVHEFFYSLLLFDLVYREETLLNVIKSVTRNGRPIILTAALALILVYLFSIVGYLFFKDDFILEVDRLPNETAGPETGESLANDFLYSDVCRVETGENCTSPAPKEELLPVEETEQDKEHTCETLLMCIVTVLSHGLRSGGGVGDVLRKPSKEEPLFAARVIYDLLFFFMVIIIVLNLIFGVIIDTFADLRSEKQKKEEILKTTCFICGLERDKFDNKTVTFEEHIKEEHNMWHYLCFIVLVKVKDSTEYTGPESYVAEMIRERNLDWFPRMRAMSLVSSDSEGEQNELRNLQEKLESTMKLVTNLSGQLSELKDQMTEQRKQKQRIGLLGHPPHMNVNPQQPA

potency relative to IP3 at the mutated receptor [1] | change of EC50 at mutant IP3R relative to IP3R1 ([1]; printed as EC50 reduced) [fold] | SMILES | potency relative to IP3 (IP3R) | activity at IP3R (result in words) (IP3R)
only equipotent with IP3 | 434 | Nc1ncnc2c1ncn2[C@@H]1O[C@H](CO)[C@@H](O[C@H]2O[C@H](CO)[C@@H](OP(=O)(O)O)[C@H](OP(=O)(O)O)[C@H]2O)[C@H]1OP(=O)(O)O [AdA, adenophostin A] | at least ten times more potent than IP3 | –
– | – | O=P(O)(O)O[C@@H]1[C@@H](O)[C@H](OP(=O)(O)O)[C@H](O)[C@H](O)[C@H]1O [Ins(1,5)P2] | – | inactive
